We go through eight compounds from US8962613B2, “P2X4 receptor antagonist” (Nippon Chemiphar Co., Ltd., priority 2010, dated 2015).

Structures are written as SMILES. Structures can show the parent of a compound that is named as a salt. Where two headings read alike, the source gives them in different places.

This assay addresses T1, human P2X4 receptors (Homo sapiens, UniProt Q99571).
T1 sequence (Q99571 1-388): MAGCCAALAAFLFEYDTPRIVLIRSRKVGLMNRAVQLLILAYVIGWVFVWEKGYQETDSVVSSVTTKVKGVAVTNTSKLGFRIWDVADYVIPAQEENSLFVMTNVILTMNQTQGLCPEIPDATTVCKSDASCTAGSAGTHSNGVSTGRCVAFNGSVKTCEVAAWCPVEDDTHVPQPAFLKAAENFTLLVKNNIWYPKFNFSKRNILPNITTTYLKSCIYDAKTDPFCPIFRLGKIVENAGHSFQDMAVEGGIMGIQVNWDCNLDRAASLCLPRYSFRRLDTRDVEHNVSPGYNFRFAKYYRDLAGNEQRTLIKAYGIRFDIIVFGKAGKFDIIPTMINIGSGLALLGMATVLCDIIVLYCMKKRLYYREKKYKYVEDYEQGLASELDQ
The assay is described as follows: P2X4 receptor antagonism, intracellular calcium influx assay (Fura-2 AM, ATP-induced). The assay is classed as cell-based. As to conditions: for IC50: 1321N1 cells stably expressing human P2X4 receptors, compound added 15 min before ATP, read-out: Inhibition activities (IC50 μM). As for the experimental part: 1321N1 cells stably expressing human P2X4 receptors were adopted for calcium influx assay. P2X4/1321N1 cells were plated in 96-well assay plate and cultured for 24 hours in an atmosphere of 5% CO2 at 37° C. Fura-2 AM calcium indicator dissolved in an extracellular solution for calcium imaging was loaded onto cells for 45 minutes at room temperature. The fluorescence was detected by FLUOstar OPTIMA micro plate reader (BMG labtech). The cells were alternatively illuminated with two excitations wavelengths (340 nm and 380 nm) via xenon lamp and the emitted fluorescence was measured at 510 nm. The fluorescence changes after the treatment of 1 μM ATP were monitored and determined the fluorescence ratio (F340/F380) as the index of intracellular calcium change. Tested compounds were treated to cells 15 min before the addition of ATP and the inhibition activities of compounds were calculated by comparing the Ca^2+ response with control in the absence of tested compound.
P2X4 receptor antagonism of the compound of the present invention was measured as described below.
1321N1 cells stably expressing human P2X4 receptors were plated in 96-well assay plate and cultured for 24 hours at 37° C. in an atmosphere of 5% CO2 for intracellular calcium assay. Fura-2 AM calcium fluorescent indicator was used for the intracellular calcium assay. Fura-2 AM was dissolved in an assay buffer, and the solution was loaded onto cells. The obtained plate was used for fluorescent assay.
Test compounds were treated to cells for 15 minutes before the addition of ATP, and the response to intracellular calcium influx induced by addition of ATP was monitored by a micro plate reader. The fluorescence ratio of excitations wavelengths of 340 nm and 380 nm was used as the index of intracellular calcium change. The inhibition activities of the test compounds were calculated by comparison with the absence of the test compound (control).

Setting [1] is: Table 20, same manner as in Example 19.
Setting [2] is: Table 19, fluorescence ratio F340/F380 vs control.

Turning to `CNc1ccc(N2C(=O)CC(=O)Nc3c2ccc2c3CCCC2)cc1` [Example 11, 5-(4-Methylaminophenyl)-1,5,8,9,10,11-hexahydronaphtho[1,2-b][1,4]diazepine-2,4-dione hydrochloride], the IC50 (as a rule, the point on the concentration scale where inhibition reaches its midpoint) under setting [1] came out at 3.3 µM.
Consider `Nc1cccc(N2C(=O)CC(=O)Nc3c2ccc2c3CCCC2)c1` [Example 8, 5-(3-Aminophenyl)-1,5,8,9,10,11-hexahydronaphtho[1,2-b][1,4]diazepine-2,4-dione hydrochloride], for which the IC50 under setting [1] was 4 µM.
Regarding `Nc1ccc(N2C(=O)CC(=O)Nc3c2ccc2c3CCCC2)cc1` [Example 10, 5-(4-Aminophenyl)-1,5,8,9,10,11-hexahydronaphtho[1,2-b][1,4]diazepine-2,4-dione], the IC50 under setting [1] was 6.1 µM.
In the case of `COc1ccc(N2C(=O)CC(=O)Nc3c2ccc2c3CCCC2)cc1` [Example 13, 5-(4-Methoxyphenyl)-1,5,8,9,10,11-hexahydronaphtho[1,2-b][1,4]diazepine-2,4-dione], the IC50 under setting [1] was 6.9 µM.
Take `O=C1CC(=O)N(c2ccc(O)cc2)c2ccc3c(c2N1)CCCC3` [Example 14, 5-(4-Hydroxyphenyl)-1,5,8,9,10,11-hexahydronaphtho[1,2-b][1,4]diazepine-2,4-dione]: the IC50 under setting [1] turned out to be 3.8 µM.
As for `O=C1CC(=O)N(c2cccc(-c3nnn[nH]3)c2)c2ccc3c(c2N1)CCCC3.[Na]` [Example 2, 5-[3-(1H-Tetrazol-5-yl)phenyl]-8,9,10,11-tetrahydronaphtho[2,1-b][1,4]diazepine-2,4(3H,5H)-dione sodium salt], for the setting “summary statement on Tables 19 and 20”, the “P2X4 receptor antagonism (in words)” value is “excellent P2X4 receptor antagonism”.
On to `O=C1CC(=O)N(c2cccc(-c3nnn[nH]3)c2)c2ccc3c(c2N1)CCC3` [Example 5, 5-[3-(1H-Tetrazol-5-yl)phenyl]-5,8,9,10-tetrahydroindeno[5,4-b][1,4]diazepine-2,4(1H,3H)-dione sodium salt], for which the IC50 under setting [2] was 0.97 µM.
For `O=C1CC(=O)N(c2cccc(O)c2)c2ccc3c(c2N1)CCCC3` [Example 3, 5-(3-Hydroxyphenyl)-8,9,10,11-tetrahydronaphtho[2,1-b][1,4]diazepine-2,4(3H,5H)-dione], the IC50 under setting [2] came out at 3.9 µM.
